Test results reported in patent US4292319A, “Antiphlogistic pharmaceutical compositions and method of use” (Boehringer Ingelheim GmbH, priority 1977, dated 1981).
Counter-ions that a name gives are not always drawn. Like-named read-outs stand apart in the source and are kept apart here.

Assays:
stomach of the rat = assay: Test for ulcerogenic effect on the stomach of the rat; type: in vivo, rat (Chbb:THOM); conditions: oral, 3 subsequent days
Procedure: (§1) (1) Test for ulcerogenic effect on the stomach of the rat
(§2) The test was carried out on male and female (1:1) Chbb:THOM-rats with a body weight between 130 to 150 gm at the beginning of the study.
(§3) The test substances (non-steroidal anti-phlogistics or mixtures of these antiphlogistics with pirenzepine dihydrochloride) were administered as triturations in 1% tylose (1 ml/100 gm animal) by way of an esophageal tube once a day on three successive days.
(§4) Four hours after the last administration (i.e. on the 3rd day) the animals were killed by an over-dose of ether. The stomachs wer dissected, cut along the great curvature and washed under flowing water for subsequent macroscopic evaluation.

[1] = tested on: kaolin-induced edema of the rat's hind paw; assay: Test for antiphlogistic effect against the kaolin-induced edema of the rat's hind paw; type: in vivo, rat (Chbb:THOM); conditions: oral, rat; for ED35: Rattus norvegicus, po, 5 h, kaolin edema, read-out: ED35; for Thickness of the paw (mean): 5 h after kaolin
Procedure: (2) Test for antiphlogistic effect against the kaolin-induced edema of the rat's hind paw (tested substances: A, B, C and D)
The test was carried out on male Chbb:THOM-rats with a body weight between 125 and 150 gm. According to HILLEBRECHT [Arzneimittel-Forsch. 4, 607 (1954)], a subplantary injection of 0.05 ml of a 10% suspension of kaolin in an aqueous 0.85% sodium chloride solution in the hind paw was used for the provocation of the kaolin edema. The other hind paw was subplantarily injected with the same volume of an aqueous 0.85% sodium chloride solution.
The measurement of the thickness of the paws was carried out using the technique of DOEPFNER and […] [Int. Arch. Allergy appl. Immunol. 12, 89 (1958)] by way of the determination of the maximum sagittal diameter, using a measuring device with constant pressure, before and 5 hours after the provocation of the edema.
The test substances (the non-steroidal antiphlogistics or the mixture of non-steroidal antiphlogistics with pirenzepine dihydrochloride) were administered 30 minutes before provocation of the edema as a trituration in 1% tylose (1 ml/[…]) by way of an esophageal tube.
The diameter of the paw measured before the beginning of the test as well as the increase in diameter of the other paw caused by injection were subtracted from the diameter of the kaolin-treated paw, and this difference, being the real swelling value, was used for the further calculations.
(§5) From the swelling values obtained by administration of different dosages of non-steroidal antiphlogistics with or without the addition of pirenzepine dihydrochloride, using a linear regression analysis according to LINDNER [Statistische Methoden, 4th Ed., pages 148-162, Birkhauser, Basel, Switzerland (1964)], the ED35 values of the antiphlogistics were calculated with the confidence limits according to FIELLER [Quart. J. Pharm. Pharmacol. 17, 117 (1944)], the ED35 being the dosage which reduces the swelling of the paws by 35% in comparison to the control animals.

[2] = Test for ulcerogenic effect on the stomach of the rat; type: in vivo, rat (Chbb:THOM); conditions: in vivo, po
Procedure: as §1, §2, §3, §4

[3] = tested on: carrageenin-induced edema of the hind paw of the rat; assay: Test for antiphlogistic effect against the carrageenin-induced edema of the hind paw of the rat; type: in vivo; conditions: rat; for ED35: Rattus norvegicus, po, 3 h, carrageenin edema; for Thickness of the paw (mean): 3 h after carrageenin
Procedure: The test was carried out in analogy to the above test for the kaolin-induced edema. However, the edema was induced according to the method of WINTER et al. [J. Pharmacol. 141, 369 (1963)] by subplantary injection of 0.05 ml of a 1% solution of carrageenin in an aqueous 0.85% solution of sodium chloride. […] Three hours after the provocation of the edema the measurement which provided the basis for the evaluation of an anti-exudative effect was carried out.
as §5

[4] = antiphlogistic 12.5 mgm/kg, without A
[5] = antiphlogistic 25 mgm/kg + A 100 mgm/kg
[6] = antiphlogistic 25 mgm/kg, without A
[7] = antiphlogistic 50 mgm/kg + A 100 mgm/kg
[8] = antiphlogistic 50 mgm/kg, without A
[9] = antiphlogistic 100 mgm/kg, without A

SMILES: O=C(O)C=CC(O)c1ccc(-c2ccccc2F)cc1 (centres unmarked) [C, 4-[4-(2'-fluoro-biphenylyl)]-4-hydroxy-crotonic acid morpholine salt]
- Ratio of animals with ulcers (stomach of the rat; antiphlogistic 52 mgm/kg, without A): 5/12
- Ratio of animals with ulcers (stomach of the rat; antiphlogistic 62 mgm/kg + A 50 mgm/kg): 4/15
- Ratio of animals with ulcers (stomach of the rat; antiphlogistic 62 mgm/kg, without A): 8/12
- Ratio of animals with ulcers (stomach of the rat; antiphlogistic 74 mgm/kg + A 50 mgm/kg): 8/17
- Ratio of animals with ulcers (stomach of the rat; antiphlogistic 74 mgm/kg + A 100 mgm/kg): 0/15
- Ratio of animals with ulcers (stomach of the rat; antiphlogistic 74 mgm/kg, without A): 10/12
- Ratio of animals with ulcers (stomach of the rat; antiphlogistic 88 mgm/kg + A 50 mgm/kg): 9/17
- Ratio of animals with ulcers (stomach of the rat; antiphlogistic 88 mgm/kg + A 100 mgm/kg): 4/15
- Ratio of animals with ulcers (stomach of the rat; antiphlogistic 106 mgm/kg + A 50 mgm/kg): 11/17
- Ratio of animals with ulcers (stomach of the rat; antiphlogistic 106 mgm/kg + A 100 mgm/kg): 3/15
- Ratio of animals with ulcers (stomach of the rat; antiphlogistic 127 mgm/kg + A 100 mgm/kg): 7/15
- Ratio of animals with ulcers (stomach of the rat; antiphlogistic 153 mgm/kg + A 100 mgm/kg): 8/15
- ED35 ([1]; with A 100 mgm/kg): 17.6 mg/kg
- ED35 ([1]; without A): 15.3 mg/kg
- Thickness of the paw (mean) ([1]; antiphlogistic 6.25 mgm/kg + A 100 mgm/kg): 215.6 10^-2 mm
- Thickness of the paw (mean) ([1]; antiphlogistic 6.25 mgm/kg, without A): 203.9 10^-2 mm
- Thickness of the paw (mean) ([1]; antiphlogistic 12.25 mgm/kg + A 100 mgm/kg): 187.0 10^-2 mm
- Thickness of the paw (mean) [1, 4]: 179.5 10^-2 mm
- Thickness of the paw (mean) [1, 5]: 166.0 10^-2 mm
- Thickness of the paw (mean) [1, 6]: 164.3 10^-2 mm
- Thickness of the paw (mean) [1, 7]: 149.3 10^-2 mm
- Thickness of the paw (mean) [1, 8]: 138.0 10^-2 mm
- Thickness of the paw (mean) [1, 9]: 93.8 10^-2 mm

SMILES: O=C([O-])Cc1ccccc1Nc1c(Cl)cccc1Cl.[Na+] [E, sodium [o-(2,6-dichloro-anilino)-phenyl]acetate]
- TD50 ([2]; with A 200 mgm/kg, oral, 3 subsequent days, read-out: ED50-ulcer): 4.05 mg/kg
- TD50 ([2]; with A 400 mgm/kg, oral, 3 subsequent days, read-out: ED50-ulcer): 5.63 mg/kg
- TD50 ([2]; without A, oral, 3 subsequent days, read-out: ED50-ulcer): 2.95 mg/kg
- Ratio of animals with ulcers (stomach of the rat; antiphlogistic 2 mgm/kg + A 200 mgm/kg): 3/20
- Ratio of animals with ulcers (stomach of the rat; antiphlogistic 2 mgm/kg + A 400 mgm/kg): 1/20
- Ratio of animals with ulcers (stomach of the rat; antiphlogistic 2 mgm/kg, without A): 5/20
- Ratio of animals with ulcers (stomach of the rat; antiphlogistic 4 mgm/kg + A 200 mgm/kg): 9/20
- Ratio of animals with ulcers (stomach of the rat; antiphlogistic 4 mgm/kg + A 400 mgm/kg): 7/20
- Ratio of animals with ulcers (stomach of the rat; antiphlogistic 4 mgm/kg, without A): 14/20
- Ratio of animals with ulcers (stomach of the rat; antiphlogistic 8 mgm/kg + A 200 mgm/kg): 17/19
- Ratio of animals with ulcers (stomach of the rat; antiphlogistic 8 mgm/kg + A 400 mgm/kg): 13/20
- Ratio of animals with ulcers (stomach of the rat; antiphlogistic 8 mgm/kg, without A): 19/20
- Ratio of animals with ulcers (stomach of the rat; antiphlogistic 16 mgm/kg + A 200 mgm/kg): 20/20
- Ratio of animals with ulcers (stomach of the rat; antiphlogistic 16 mgm/kg + A 400 mgm/kg): 19/20
- ED35 ([3]; with A 400 mgm/kg): 4.3 mg/kg
- ED35 ([3]; without A): 5 mg/kg
- Thickness of the paw (mean) ([3]; antiphlogistic 1.5 mgm/kg + A 400 mgm/kg, oral): 209.5 10^-2 mm
- Thickness of the paw (mean) ([3]; antiphlogistic 1.5 mgm/kg, without A, oral): 209.5 10^-2 mm
- Thickness of the paw (mean) ([3]; antiphlogistic 3.0 mgm/kg + A 400 mgm/kg, oral): 181.5 10^-2 mm
- Thickness of the paw (mean) ([3]; antiphlogistic 3 mgm/kg, without A, oral): 188.5 10^-2 mm
- Thickness of the paw (mean) ([3]; antiphlogistic 6.0 mgm/kg + A 400 mgm/kg, oral): 162.5 10^-2 mm
- Thickness of the paw (mean) ([3]; antiphlogistic 6 mgm/kg, without A, oral): 170.0 10^-2 mm
- Thickness of the paw (mean) ([3]; antiphlogistic 12.0 mgm/kg + A 400 mgm/kg, oral): 148.5 10^-2 mm
- Thickness of the paw (mean) ([3]; antiphlogistic 12 mgm/kg, without A, oral): 154.0 10^-2 mm

SMILES: COc1ccc2cc([C@H](C)C(=O)O)ccc2c1 [F, d-2-(6-methoxy-2-naphthyl)-propionic acid]
- ED35 ([3]; with A 400 mgm/kg, oral, read-out: ED35): 3 mg/kg
- ED35 ([3]; without A, oral, read-out: ED35): 2.8 mg/kg
- Thickness of the paw (mean) ([3]; antiphlogistic 2 mgm/kg + A 400 mgm/kg, oral): 192.2 10^-2 mm
- Thickness of the paw (mean) ([3]; antiphlogistic 2 mgm/kg, without A, oral): 188.5 10^-2 mm
- Thickness of the paw (mean) ([3]; antiphlogistic 4 mgm/kg + A 400 mgm/kg, oral): 168.5 10^-2 mm
- Thickness of the paw (mean) ([3]; antiphlogistic 4 mgm/kg, without A, oral): 157.5 10^-2 mm
- Thickness of the paw (mean) ([3]; antiphlogistic 8 mgm/kg + A 400 mgm/kg, oral): 133.3 10^-2 mm
- Thickness of the paw (mean) ([3]; antiphlogistic 8 mgm/kg, without A, oral): 118.0 10^-2 mm

SMILES: CC(C)Cc1ccc(C(C)C(=O)O)cc1 (centres unmarked) [H, 2-(4-isobutylphenyl)-propionic acid]
- TD50 ([2]; ED50-ulcer): 31 mg/kg
- Ratio of animals with ulcers (stomach of the rat; [4]): 0/20
- Ratio of animals with ulcers (stomach of the rat; [5]): 6/20
- Ratio of animals with ulcers (stomach of the rat; antiphlogistic 25 mgm/kg + A 400 mgm/kg): 1/20
- Ratio of animals with ulcers (stomach of the rat; [6]): 8/20
- Ratio of animals with ulcers (stomach of the rat; [7]): 11/20
- Ratio of animals with ulcers (stomach of the rat; antiphlogistic 50 mgm/kg + A 400 mgm/kg): 11/20
- Ratio of animals with ulcers (stomach of the rat; [8]): 15/20
- Ratio of animals with ulcers (stomach of the rat; antiphlogistic 100 mgm/kg + A 100 mgm/kg): 18/20
- Ratio of animals with ulcers (stomach of the rat; antiphlogistic 100 mgm/kg + A 400 mgm/kg): 16/20
- Ratio of animals with ulcers (stomach of the rat; [9]): 19/20
- Ratio of animals with ulcers (stomach of the rat; antiphlogistic 200 mgm/kg + A 100 mgm/kg): 20/20
- Ratio of animals with ulcers (stomach of the rat; antiphlogistic 200 mgm/kg + A 400 mgm/kg): 19/20
- Ratio of animals with ulcers (stomach of the rat; antiphlogistic 200 mgm/kg, without A): 20/20
- ED35 ([3]; with A 400 mgm/kg): 34.2 mg/kg
- ED35 ([3]; without A): 39.6 mg/kg
- Thickness of the paw (mean) ([3]; antiphlogistic 20 mgm/kg + A 400 mgm/kg, oral): 204.0 10^-2 mm
- Thickness of the paw (mean) ([3]; antiphlogistic 20 mgm/kg, without A, oral): 210.0 10^-2 mm
- Thickness of the paw (mean) ([3]; antiphlogistic 40 mgm/kg + A 400 mgm/kg, oral): 170.0 10^-2 mm
- Thickness of the paw (mean) ([3]; antiphlogistic 40 mgm/kg, without A, oral): 167.0 10^-2 mm
- Thickness of the paw (mean) ([3]; antiphlogistic 80 mgm/kg + A 400 mgm/kg, oral): 131.7 10^-2 mm
- Thickness of the paw (mean) ([3]; antiphlogistic 80 mgm/kg, without A, oral): 141.5 10^-2 mm
